Laboratory results published in patent US20020002171A1, “Materials and methods for killing nematodes and nematode eggs” (priority 2000, published 2002).

System: Caenorhabditis elegans
Test: C. elegans L1 nematicidal dose response in 96-well plates, 5 day visual score (Example 2; same procedure for Example 7, Table 3)
Assay type: in vivo
Set-up: key to 5 Day Visual Score V1 / 5 Day Visual Score V2 / 5 Day Visual Score V3 / 5 Day Visual Score V4 / 5 Day Visual Score V6 / 5 Day Visual Score V5 / Initial HTS Run Visual Score / Follow-up HTS Run Visual Score: Dead: only stiff L1s (no movement); Dead (L4): worms are dead, but at a later larval stage; majority of worms are L1 (based on size) worms move when plate is tapped; majority of worms are L2 (based on size); majority of worms are L3 (based on size); majority of worms are L4 (based on size); AD: majority of worms are adult; #AD: 5 adult worms or less; B!: sterile (0-25 progeny); B: low broodsize (25-100 progeny); ˜B: moderate broodsize (100-250 progeny); <: reduced broodsize (250-500 progeny); OK: no effect (˜1000+ progeny)
Settings: for 5 Day Visual Score V1 / 5 Day Visual Score V2 / 5 Day Visual Score V3 / 5 Day Visual Score V4 / 5 Day Visual Score V5 / 5 Day Visual Score V6: dose response; for 5 Day Visual Score V1: dilution V1, day 5; for 5 Day Visual Score V2: dilution V2, day 5; for 5 Day Visual Score V3: dilution V3, day 5; for 5 Day Visual Score V4: dilution V4, day 5; for 5 Day Visual Score V5: dilution V5, day 5; for 5 Day Visual Score V6: dilution V6, day 5
Protocol: Caenorhabditis elegans adults were grown on Nematode Growth Medium (NGM) until they produced eggs, then the adults were removed.
The eggs were allowed to hatch, and the L1 larvae collected. See The Nematode Caenorhabditis elegans (1988) Cold Spring Harbor Laboratory Press. Using a Matrix Programmable Pipette, the L1s were distributed into 96-well tissue culture plates, 20 L1 in 50 μl NGM per well. Antibiotic/Antimyoticwas added to each well, and 1% by weight E. coli strain HB101. The subject anthelmintic compounds were stored at 5 mM in 100% DMSO. 0.7 μl of compounds 1-31 were added to the left-most column of wells to yield a final concentration of 70 μM in 1.4% DMSO, with 1.4% DMSO only as the control. The compounds were then subjected to 5 more 3-fold dilutions from left to right to yield 6 column concentrations of 70 μM, 23.3 μM, 7.8 μM, 2.6 μM, 0.9 μM, and 0.3 μM. Plates were stored in air-tight Rubbermaid plastic boxes at 20° C. The nematodes had cleared all control wells by day 4, and nematode viability was scored by visual examination under a 100× dissecting microsope on day 5. A visual viability scoring system was used as follows:
Column V1 has a compound concentration of 70 μM with sequential 3-fold dilutions reported in columns V2, V3, V4, V5, and V6, respectively, such that the V6 concentration was 0.3 μM.
The nematicidal activity of anthelmintic Compositions 48-168 were determined in accordance with the procedure outlined in Example 2.

| Compound | Follow-up HTS Run % Run [%] | Follow-up HTS Run mOD [mOD] | Initial HTS Run % Run [%] | Initial HTS Run Visual Score | Initial HTS Run mOD [mOD] | 5 Day Visual Score V1 | 5 Day Visual Score V2 | 5 Day Visual Score V3 | 5 Day Visual Score V4 | 5 Day Visual Score V5 | 5 Day Visual Score V6 | Follow-up HTS Run Visual Score |
| --- | --- | --- | --- | --- | --- | --- | --- | --- | --- | --- | --- | --- |
| CCCN(CC1CC1)c1nc(N2CCN(c3ncccn3)CC2)ns1 [compound 222] | 126 | 203 | 106 | L2-Dead L3? | 117 | #AD/˜B | OK (no effect (˜1000+ progeny)) | OK (no effect (˜1000+ progeny)) | OK (no effect (˜1000+ progeny)) | OK (no effect (˜1000+ progeny)) | OK (no effect (˜1000+ progeny)) |  |
| CCN(CC)C(=O)C1CCCN(c2nc(N3CCN(c4ccc(F)cc4)CC3)ns2)C1 (stereo not drawn) [compound 223] | 118 | 190 | 107 |  | 118 | Dead | B (low broodsize (25-100 progeny)) | < (reduced broodsize (250-500 progeny)) | OK (no effect (˜1000+ progeny)) | OK (no effect (˜1000+ progeny)) | OK (no effect (˜1000+ progeny)) | Dead |
| CCCCNc1nsc(N2CCN(c3cccc(C(F)(F)F)c3)CC2)n1 [compound 224] | 122 | 196 | 143 |  | 157 | Dead | Dead | < (reduced broodsize (250-500 progeny)) | OK (no effect (˜1000+ progeny)) | OK (no effect (˜1000+ progeny)) | OK (no effect (˜1000+ progeny)) | L1 |
| Fc1ccc(CCNc2nsc(N3CCN(c4cccc(C(F)(F)F)c4)CC3)n2)cc1 [compound 225] | 107 | 172 | 114 |  | 125 |  |  | ˜B (moderate broodsize (100-250 progeny)) | OK (no effect (˜1000+ progeny)) | OK (no effect (˜1000+ progeny)) | OK (no effect (˜1000+ progeny)) |  |
| FC(F)(F)c1cccc(N2CCN(c3nc(NCC4CCCCC4)ns3)CC2)c1 [compound 226] | 104 | 167 | 107 |  | 118 | L1 | ˜B (moderate broodsize (100-250 progeny)) | OK (no effect (˜1000+ progeny)) | OK (no effect (˜1000+ progeny)) | OK (no effect (˜1000+ progeny)) | OK (no effect (˜1000+ progeny)) |  |
| Cc1cccc(C)c1N1CCN(c2nsc(N3CCN(c4c(C)cccc4C)CC3)n2)CC1 [compound 227] | 91 | 146 | 107 | Dead | 118 | Dead | Dead | OK (no effect (˜1000+ progeny)) | OK (no effect (˜1000+ progeny)) | OK (no effect (˜1000+ progeny)) | OK (no effect (˜1000+ progeny)) | Dead |
| CCN(c1nc(N2CCN(c3c(C)cccc3C)CC2)ns1)C1CCCCC1 [compound 228] | 73 | 118 | 107 | 1AD/B! | 118 | Dead | Dead | OK (no effect (˜1000+ progeny)) | OK (no effect (˜1000+ progeny)) | OK (no effect (˜1000+ progeny)) | OK (no effect (˜1000+ progeny)) | Dead/1L4/1AD |
| CCCCCCCCCCCCCCCCCCN(C)c1nc(N2CCN(c3c(C)cccc3C)CC2)ns1 [compound 229] | 81 | 130 | 125 | Dead | 137 | Dead |  | #AD/˜B | OK (no effect (˜1000+ progeny)) | OK (no effect (˜1000+ progeny)) | OK (no effect (˜1000+ progeny)) | 5AD/B |
| CCCCC(CC)CN(CC(CC)CCCC)c1nc(N2CCN(c3c(C)cccc3C)CC2)ns1 (stereo not drawn) [compound 230] | 63 | 101 | 121 | Dead/1AD/B! | 133 | Dead |  |  | < (reduced broodsize (250-500 progeny)) | OK (no effect (˜1000+ progeny)) | OK (no effect (˜1000+ progeny)) | 3AD/B |
